Data on three molecules can be found in publication PMC6832651, “Design, Synthesis and Investigation of the Potential Anti-Inflammatory Activity of 7-O-Amide Hesperetin Derivatives” (Molecules, 2019).

Details of series [1]: method as in PMID 17047689. The conditions noted are these: cited from earlier work.
Details of series [2]: method as in PMID 19629709. Particulars: cited from earlier work.
In a further series the test system is TNF-α. Put plainly: TNF-α level in medium of LPS-induced RAW264.7 cells (ELISA). The conditions noted are these: 10 μM compound (Figure 2A-C). The series is classed as cell-based, mouse. The text has this:
(§1) When inflammation occurs, LPS-activated macrophages produce a variety of inflammatory cytokines, including TNF-α, interleukins (ILs), and nitric oxide (NO), which show a host shielding effect and also accelerate the occurrence of the inflammatory response during inflammatory situations. To evaluate the anti-inflammatory activity of hesperetin derivatives, the levels of TNF-α, IL-6 and IL-1β in the medium of LPS-induced macrophage cells were detected by enzyme linked immunosorbent assay (ELISA). […] Later, we will select one of them as lead compound and modify the structure at the 3’-OH, 5-OH and 4-carbonyl positions. […] Compounds 4d (MW = 401) and 4k (MW = 427) have similar structures and should have the same mechanism. Therefore, compound 4d with lower molecular weight was selected to further explore the mechanism(s) of the anti-inflammatory effect.
(§2) RAW264.7 cells (2 × 10^5 cells/well) were cultured in 24-well plate and pretreated with 10 μM of compounds for 1 h. And then stimulated with LPS, […], for 24 h. The cell culture supernatant were collected and the levels of TNF-α, IL-6 and IL-1β were determined using the ELISA kit (Elabscience, Wuhan, China). The optical density (OD) was measured at 540 nm. The results were analyzed using Origin Pro 8 (OriginLab, Northampton, MA, USA).
A general note: An ELISA detects its analyte on a solid surface through an enzyme-linked reagent.

For series [3], the system named is LPS-induced NO production in RAW264.7 cells. Put plainly: Inhibition of LPS-induced NO production (Griess reagent). The series is classed as cell-based, mouse. The conditions noted are these: for LPS-induced NO release: LPS-stimulated, result in words; for IC50: Mus musculus, 1 h pretreatment, then LPS 24 h, mean ± SD (n = 3). The method, then: NO is an important inflammatory mediator and is overproduced and secreted out of mouse macrophages in response to bacterial lipopolysaccharide. To evaluate the anti-inflammatory activity of hesperetin derivatives, the secretion level of NO was detected in the medium of RAW264.7 cells after LPS stimulated with Griess reagent. Before the cells were treated with LPS (1 μg/mL) for 24 h, pretreatment with the compounds for 1 hour. […] All hesperetin derivatives could decrease the release of NO induced by LPS. […] While extended the length of the amide side chain and the inhibitory activities increased (4d > 4c > 4a; 4e > 4b). […] On the other hand, the cavity was medium-sized, large enough to accommodate cyclopentyl and propyl groups, but not enough to accommodate cyclohexyl and butyl ones (4a < 4b < 4d > 4f; 4k > 4l).
Nitrite levels were determined using the Griess method for NO has a short half-life and is oxidized to stable nitrite. RAW 264.7 cells were plated at a density of 2 × 10^5 per well in a 24-well culture plate and incubated in a 37 °C humidified incubator (5% CO2). After overnight Cultured, discarded the supernatant, added pre-configured compounds of different concentrations to the 24-well plate, and added the same one-thousandth of the DMSO solvent as the control to the experimental group for 1 h. Then LPS was added to experimental and model groups at a concentration of […] for 24 h compared to vehicle control. Following treatment, media was collected and centrifuged at 2000 rpm for 5 min to remove cellular debris. The medium from treated cells was removed and placed into a 96-well plate (50 µL per well) and was measured in culture supernatant using Griess reagent at 540 nm. The IC50 values of compounds were calculated by SPSS23.
A general note: Griess reagent forms a coloured azo dye with nitrite.

For the next series, the system named is NF-κB signal pathway. The series can be described thus: Western blotting of NF-κB signal pathway in LPS-induced RAW264.7 cells. The series is classed as cell-based, mouse. The text has this:
Stimulation with LPS leads to the activation of nuclear factor-kappa B (NF-κB), which is a well-known transcription factor that positively regulates inflammation. When NF-κB activation is stimulated by LPS, inhibitor of NF-κB (IκB) protein phosphorylated and degraded frees NF-κB p65 subunit from sequestration, allowing it to translocate to the nucleus, bind to target promoters, and turn on the transcriptions of inflammation genes including TNF-α and IL-6. Therefore, Western blotting was used to examine the effects of compound 4d on LPS induced transcriptional activity of NF-κB in RAW264.7 cells.
After the treatment with LPS ([…]) in the presence different concentration gradient or absence of compounds, removed culture supernatants, and cells were collected and lysed with RIPA lysis buffer (Beyotime, Shanghai, China) and phosphatase inhibitors (Beibokit, Bestbio, Shanghai, China). After centrifugation (4 °C, 30 min, 12,000 rpm, Beckman Coulter, Inc., Fullerton, CA, USA), the total protein concentration was determined using BCA Protein Assay Kit (Beyotime, Shanghai, China). Lysates containing […] of total proteins were fractionated on SDS polyacrylamide gel and transferred to a polyvinylidene difluoride membranes (PVDF) (Merck Millipore, Tullagreen Carrigtwohill, Ireland). Membranes were blocked with 5% skim milk or 3% BSA (Albumin Bovine V, Sigma) in TBST and incubated at 4 °C overnight with their respective primary antibody: β-actin (1:1000 dilution; Abcam, Cambridge, MA, USA), iNOS (1:1000 dilution; Abcam, Cambridge, MA, USA), COX-2 (1:1000 dilution; CST, Danvers, MA, USA ), NF-κB (1:1000 dilution; CST, Danvers, MA, USA). After washing three times with TBST, membranes were incubated with secondary antibody for 1 h in room temperature on the shaker. Protein bands were visualized by the ultra-sensitive enhanced chemiluminescent (ECL) substrate (ECL-plus, Thermo Scientific, Rockford, IL, USA), after washing three times with TBST [34].

In series [4] the test system is LPS-induced NO production in RAW264.7 cells. The series can be described thus: Inhibition of LPS-induced NO production (Griess reagent). The conditions noted are these: Mus musculus, 10 μM compound, 1 h pretreatment, then LPS (1 μg/mL) 24 h, mean ± SD (n = 3). The series is classed as cell-based.
In a further series the test system is COX-2. Put plainly: Western blotting of COX-2 expression in LPS-induced RAW264.7 cells. It counts as cell-based, mouse. Particulars: compound 5, 10, 20 μM (Figure 3). The procedure: (§3) In the process of inflammation, inducible nitric oxide synthase enzymes (iNOS) are induced to overexpression in inflammatory cells when exposed to pro-inflammatory cytokines, which further leads to excessive production of NO. The inhibition of NO production by compound 4d may be correlated with its suppressive effect on LPS-induced iNOS. Thus, the inhibitory effects of compound 4d on LPS-mediated expressions of iNOS were analyzed by western blotting. Nitric oxide synthase (iNOS) protein levels were analyzed after exposure to LPS for 24 h in the presence or absence of compound 4d (5, 10, 20 μM). […] Cyclooxygenase-2 (COX-2) is an important indicator of anti-inflammatory inhibitors, maintaining a low level in normal tissues. […] Bay 11-7082 (5 μM) used as a positive control.
(§4) After the treatment with LPS ([…]) in the presence different concentration gradient or absence of compounds, removed culture supernatants, and cells were collected and lysed with RIPA lysis buffer (Beyotime, Shanghai, China) and phosphatase inhibitors (Beibokit, Bestbio, Shanghai, China). After centrifugation (4 °C, 30 min, 12,000 rpm, Beckman Coulter, Inc., Fullerton, CA, USA), the total protein concentration was determined using BCA Protein Assay Kit (Beyotime, Shanghai, China). […]
For orientation: Immunoblotting shows a protein as a band on a membrane.

In a further series the test system is IL-1β. Put plainly: IL-1β level in medium of LPS-induced RAW264.7 cells (ELISA). Particulars: 10 μM compound (Figure 2A-C). It counts as cell-based, mouse.
Text: as §1, §2

The subject of the next series is IL-6. The series can be described thus: IL-6 level in medium of LPS-induced RAW264.7 cells (ELISA). The series is classed as cell-based, mouse. Particulars: 10 μM compound (Figure 2A-C).
Text: as §1, §2

The subject of another series is iNOS. Put plainly: Western blotting of iNOS expression in LPS-induced RAW264.7 cells. The series is classed as cell-based, mouse. Particulars: LPS 24 h, compound 5, 10, 20 μM (Figure 3). The procedure:
as §3, §4

The test system of another series is RAW264.7 cells. The series can be described thus: MTT cell viability / cytotoxicity assay. The series is classed as cell-based, mouse. Particulars: concentrations up to 100 μM, MTT (Figure 1). The procedure: Compounds 4a–4l, 5a–5b, 6a–6f, 7a–7c were assessed for toxicity against RAW264.7 cell lines using the 3-(4,5-dimethylthiazol-2-yl)-2,5-diphenyltetrazolium bromide (MTT) assay. After 40 μM treatment, the cell viability of all of the hesperetin derivatives was more than 90%. It was thus shown that the anti-inflammatory activities of hesperetin derivatives were not due to their cytotoxicity. In subsequent anti-inflammation studies, the highest concentration of hesperetin derivatives was set below 40 µM.
Cytotoxicity and cell viability was evaluated by a MTT (Sigma, Shanghai, China) assay using a method similar to the one described above. Cells were inoculated at a density of 7.0 × 10^3 cells/well into 96-well plate and cultured at 37 °C for 12 h. […] After that, MTT dissolved in phosphate buffered saline (PBS) and was added to the culture medium to reach a final concentration of 0.5 mg/mL and incubated for another 4 h. The media was removed and 200 μL of DMSO was added and incubated for 30 min. Finally, the cell viability (%) was calculated based on the absorbance measured at the wavelength of 490 nm and measured using a microplate reader (Synergy HTX, Biotek, Winowski, VT, USA). The cell viability were calculated by GraphPad Prism 6 (GraphPad, San Diego, CA, USA).

Each structure is given as a SMILES string. Read-outs that look alike come from different tables or passages of the source.

As for `COc1ccc([C@@H]2CC(=O)c3c(O)cc(O)cc3O2)cc1O` [hesperetin], the figures for the “elimination half-life (t1/2)” value in series [1] and in series [2] were 1.78 h and 3.12 h, respectively.
As a reminder, the IC50 is the concentration needed to halve the response being measured. The melting point is the temperature of the solid-liquid transition. One may read the inhibition as the change of the read-out against control, counted positive when it falls. In the case of `CCCNC(=O)COc1cc(O)c2c(c1)O[C@H](c1ccc(OC)c(O)c1)CC2=O` [Compound 4d, 7-O-(2-(Propylamino)-2-oxoethyl)hesperetin], the melting point lay in the range of 135.5 to 137.7 °C. Moreover, the “inhibitory effect on TNF-α production” value with TNF-α was “greater inhibitory effects than indomethacin (Ind) and celecoxib (Cel)”. Further, in series [3], the “LPS-induced NO release” value is “significantly alleviated the increase of LPS-induced NO release” and the IC50 was 19.3 ± 0.47 µM. The “phosphorylation of IκBα” value in the series on NF-κB signal pathway (LPS-induced RAW264.7 cells (Figure 4)) is listed as “markedly decreased”. Besides, in the series with NF-κB signal pathway (LPS-induced RAW264.7 cells, compared with the LPS induced group (Figure 4)), the “protein expressions of NF-κB and IκBα” value is “down-regulated”. Besides, the “LPS-induced NF-κB p65 nuclear translocation” value in the series on NF-κB signal pathway (RAW264.7 cells, pretreatment 5, 10, 20 µM) was “concentration-dependently reversed”. Also, in [4], the inhibition at 10 µM stood at 38.2 ± 1.13%. The “expression level of COX-2” value with COX-2 is “capable of reducing the expression level of COX-2 in a concentration-dependent way”. Besides, the “inhibitory effect on IL-1β production” value in the series on IL-1β is “greater inhibitory effects than indomethacin (Ind) and celecoxib (Cel)”. For the same molecule, in the series on IL-6, the “inhibitory effect on IL-6 production” value was “greater inhibitory effects than indomethacin (Ind) and celecoxib (Cel)”. For the same molecule, the “expression level of iNOS” value in the series with iNOS is recorded as “significantly decreased the expression level of iNOS induced by LPS in a dose-dependent manner”. The cytotoxicity entry in the series with RAW264.7 cells was “no significant cytotoxicity”.
`COc1ccc([C@@H]2CC(=O)c3c(O)cc(OCC(=O)NC4CCCC4)cc3O2)cc1O` [Compound 4k, 7-O-(2-(Cyclopentylamino)-2-oxoethyl)hesperetin] gave a melting point of 187.5 to 190 °C. Moreover, the “inhibitory effect on TNF-α production” value in the series with TNF-α is “greater inhibitory effects than indomethacin (Ind) and celecoxib (Cel)”. Further, in series [3], the “LPS-induced NO release” value is listed as “significantly alleviated the increase of LPS-induced NO release” and the 50% inhibitory concentration (IC50) came to 16.6 ± 0.85 µM. For the same molecule, in [4], the inhibition at 10 µM was determined as 40.9 ± 0.64%. The “inhibitory effect on IL-1β production” value in the series with IL-1β is “greater inhibitory effects than indomethacin (Ind) and celecoxib (Cel)”. Also, the “inhibitory effect on IL-6 production” value with IL-6 was “greater inhibitory effects than indomethacin (Ind) and celecoxib (Cel)”.
